{"source": "patent US20100184770A1", "about": "“COMPOUNDS” (Glaxo Group Limited, priority 2006, published 2010)", "note": "Where a name gives a salt, the structure may show the parent alone.", "data": [{"target": "T1, human H1 receptor (Homo sapiens, UniProt P35367)", "T1 construct": "expressed in transfected cells", "T1 sequence (P35367 whole entry)": "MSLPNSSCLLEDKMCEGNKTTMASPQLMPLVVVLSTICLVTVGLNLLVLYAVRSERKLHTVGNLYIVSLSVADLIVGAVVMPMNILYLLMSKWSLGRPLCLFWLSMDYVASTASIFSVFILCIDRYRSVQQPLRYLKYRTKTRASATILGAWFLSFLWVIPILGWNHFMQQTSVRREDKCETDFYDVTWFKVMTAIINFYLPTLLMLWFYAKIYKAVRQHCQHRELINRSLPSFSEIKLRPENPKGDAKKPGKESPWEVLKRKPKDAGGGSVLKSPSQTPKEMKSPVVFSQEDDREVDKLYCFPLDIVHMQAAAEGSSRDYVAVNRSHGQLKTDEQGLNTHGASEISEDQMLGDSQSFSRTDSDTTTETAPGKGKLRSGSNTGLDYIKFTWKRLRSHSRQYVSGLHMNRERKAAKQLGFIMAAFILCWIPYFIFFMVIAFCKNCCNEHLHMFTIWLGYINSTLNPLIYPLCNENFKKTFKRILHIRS", "assay": "Histamine H1 functional antagonist assay: determination of antagonist duration (washout, FLIPR)", "assay_type": "cell-based", "conditions": "at one or more time points after washout", "method": "1. Generation of Histamine H1 Cell Line The human H1 receptor is cloned using known procedures described in the literature [Biochem. Biophys. Res. Commun., 201(2):894 (1994)]. Chinese hamster ovary (CHO) cells stably expressing the human H1 receptor are generated according to known procedures described in the literature [Br. J. Pharmacol., 117(6):1071 (1996)].\nTo determine the antagonist duration, cells are cultured overnight in non-coated black-walled clear bottom 96-well tissue culture plates, are washed with PBS and are incubated with a concentration of antagonist chosen to give an approximate DR in the range 30-300. Following the 30 min antagonist incubation period, the cells are washed two or three times with 200 μl of PBS and then 100 μl Tyrodes buffer is added to each well to initiate antagonist dissociation. Following incubation for predetermined times, typically 30-270 min at 37° C., the cells are then washed again with 200 μl PBS and are incubated with 100 Tyrodes buffer containing Brilliant Black, probenecid and Fluo-4 for 45 min at 37° C., as described above. After this period, the cells are challenged with histamine in the FLIPR™ as described above. The dose ratio at each time point is used to determine the fractional H1 receptor occupancy by the following equation: fractional receptor occupancy=(DR-1)/DR. The decrease in receptor occupancy over time approximates to a straight line and is analysed by linear regression. The slope of this straight line fit is used as an index of the dissociation rate of the antagonist. The dose ratios for antagonist treated cells and for antagonist treated and washed cells at each time point are used to calculate a relative dose ratio (rel DR) which is also used as an index of antagonist duration. Antagonists with long duration of action produce rel DR values close to 1, and antagonists with short duration of action produce rel DR values that approaches the dose ratio value obtained for antagonist treatment alone.", "values": [{"compound": "O=C(CCN1CCC[C@@H]1Cn1nc(Cc2ccc(Cl)cc2)c2ccccc2c1=O)N1CCCCC1.O=C(O)C(F)(F)F", "note": "[Example 12, 4-[(4-chlorophenyl)methyl]-2-({(2R)-1-[3-oxo-3-(1-piperidinyl)propyl]-2-pyrrolidinyl}methyl)-1(2H)-phthalazinone, trifluoroacetate]", "duration of action compared with azelastine in the histamine H1 functional antagonist assay": "longer duration of action than azelastine"}, {"compound": "COCCNC(=O)CCCN1CCC[C@@H]1Cn1nc(Cc2ccc(Cl)cc2)c2ccccc2c1=O.O=CO", "note": "[Example 24, Formic acid-4-((2R)-2-{[4-[(4-chlorophenyl)methyl]-1-oxo-2(1H)-phthalazinyl]methyl}-1-pyrrolidinyl)-N-[2-(methyloxy)ethyl] butanamide (1:1)]", "duration of action compared with azelastine in the histamine H1 functional antagonist assay": "longer duration of action than azelastine"}, {"compound": "CC(C)(C)NC(=O)CN1CCCC1Cn1nc(Cc2ccc(Cl)cc2)c2ccccc2c1=O.O=C(O)C(F)(F)F", "note": "[Example 30, 2-((2R)-2-{[4-[(4-chlorophenyl)methyl]-1-oxo-2(1H)-phthalazinyl]methyl}-1-pyrrolidinyl)-N-(1,1-dimethylethyl) acetamide, trifluoroacetate]", "duration of action compared with azelastine in the histamine H1 functional antagonist assay": "longer duration of action than azelastine"}, {"compound": "O=C(CCN1CCC[C@@H]1Cn1nc(Cc2ccc(Cl)cc2)c2ccccc2c1=O)NCC(F)(F)F", "note": "[Example 4, 3-((2R)-2-{[4-[(4-chlorophenyl)methyl]-1-oxo-2(1H)-phthalazinyl]methyl}-1-pyrrolidinyl)-N-(2,2,2-trifluoroethyl)propanamide]", "duration of action compared with azelastine in the histamine H1 functional antagonist assay": "longer duration of action than azelastine"}, {"compound": "CCCNC(=O)CCCN1CCC[C@@H]1Cn1nc(Cc2ccc(Cl)cc2)c2ccccc2c1=O.Cl", "note": "[Example 26, 4-((2R)-2-{[4-[(4-Chlorophenyl)methyl]-1-oxo-2(1H)-phthalazinyl]methyl}-1-pyrrolidinyl)-N-propylbutanamide, hydrochloride]", "duration of action compared with azelastine in the histamine H1 functional antagonist assay": "longer duration of action than azelastine"}, {"compound": "CC(C)(C)C(=O)NCCCN1CCC[C@@H]1Cn1nc(Cc2ccc(Cl)cc2)c2cnccc2c1=O.O=C(O)C(F)(F)F", "note": "[Example 80, N-[3-((2R)-2-{[4-[(4-chlorophenyl)methyl]-1-oxopyrido[3,4-d]pyridazin-2(1H)-yl]methyl}-1-pyrrolidinyl)propyl]-2,2-dimethylpropanamide, trifluoroacetate]", "duration of action compared with azelastine in the histamine H1 functional antagonist assay": "longer duration of action than azelastine"}, {"compound": "COCCC(=O)NCCCN1CCC[C@@H]1Cn1nc(Cc2ccc(Cl)cc2)c2ccccc2c1=O", "note": "[Example 42, N-[3-((2R)-2-{[4-[(4-Chlorophenyl)methyl]-1-oxo-2(1H)-phthalazinyl]methyl}-1-pyrrolidinyl)propyl]-3-(methyloxy)propanamide, trifluoroacetate]", "duration of action compared with azelastine in the histamine H1 functional antagonist assay": "longer duration of action than azelastine"}, {"compound": "COCC(=O)NCCN1CCC[C@@H]1Cn1nc(Cc2ccc(Cl)cc2)c2ccccc2c1=O.O=C(O)C(F)(F)F", "note": "[Example 39, N-[2-((2R)-2-{[4-[(4-chlorophenyl)methyl]-1-oxo-2(1H)-phthalazinyl]methyl}-1-pyrrolidinyl)ethyl]-2-(methyloxy)acetamide, trifluoroacetate]", "duration of action compared with azelastine in the histamine H1 functional antagonist assay": "longer duration of action than azelastine"}, {"compound": "CC(C)(C)C(=O)NCCN1CCC[C@@H]1Cn1nc(Cc2ccc(Cl)cc2)c2ccccc2c1=O.O=C(O)C(F)(F)F", "note": "[Example 38, N-[2-((2R)-2-{[4-[(4-chlorophenyl)methyl]-1-oxo-2(1H)-phthalazinyl]methyl}-1-pyrrolidinyl)ethyl]-2,2-dimethylpropanamide, trifluoroacetate]", "duration of action compared with azelastine in the histamine H1 functional antagonist assay": "longer duration of action than azelastine"}, {"compound": "CC(C)C(=O)NCCN1CCC[C@@H]1Cn1nc(Cc2ccc(Cl)cc2)c2ccccc2c1=O.O=C(O)C(F)(F)F", "note": "[Example 41, N-[2-((2R)-2-{[4-[(4-chlorophenyl)methyl]-1-oxo-2(1H)-phthalazinyl]methyl}-1-pyrrolidinyl)ethyl]-2-methylpropanamide, trifluoroacetate]", "duration of action compared with azelastine in the histamine H1 functional antagonist assay": "longer duration of action than azelastine"}, {"compound": "CCOCCNC(=O)CCN1CCCC1Cn1nc(Cc2ccc(Cl)cc2)c2ccccc2c1=O.O=C(O)C(F)(F)F", "note": "[Example 22, 3-((2R)-2-{[4-[(4-chlorophenyl)methyl]-1-oxo-2(1H)-phthalazinyl]methyl}-1-pyrrolidinyl)-N-[2-(ethyloxy)ethyl] propanamide, trifluoroacetate]", "duration of action compared with azelastine in the histamine H1 functional antagonist assay": "longer duration of action than azelastine"}, {"compound": "COCCCC(=O)NCCN1CCC[C@@H]1Cn1nc(Cc2ccc(Cl)cc2)c2cnccc2c1=O", "note": "[Example 70, N-[2-((2R)-2-{[4-[(4-chlorophenyl)methyl]-1-oxopyrido[3,4-d]pyridazin-2(1H)-yl]methyl}-1-pyrrolidinyl)ethyl]-4-(methyloxy)butanamide, trifluoroacetate]", "duration of action compared with azelastine in the histamine H1 functional antagonist assay": "longer duration of action than azelastine"}, {"compound": "COCCN(C)C(=O)CCN1CCC[C@@H]1Cn1nc(Cc2ccc(Cl)cc2)c2ccccc2c1=O.O=C(O)C(F)(F)F", "note": "[Example 14, 3-((2R)-2-{[4-[(4-chlorophenyl)methyl]-1-oxo-2(1H)-phthalazinyl]methyl}-1-pyrrolidinyl)-N-methyl-N-[2-(methyloxy)ethyl] propanamide, trifluoroacetate]", "duration of action compared with azelastine in the histamine H1 functional antagonist assay": "longer duration of action than azelastine"}, {"compound": "O=C(CCN1CCC[C@@H]1Cn1nc(Cc2ccc(Cl)cc2)c2ccccc2c1=O)NCCF.O=C(O)C(F)(F)F", "note": "[Example 1, 3-((2R)-2-{[4-[(4-Chlorophenyl)methyl]-1-oxo-2(1H)-phthalazinyl]methyl}-1-pyrrolidinyl)-N-(2-fluoroethyl)propanamide, trifluoroacetate]", "duration of action compared with azelastine in the histamine H1 functional antagonist assay": "longer duration of action than azelastine"}, {"compound": "O=C(CCN1CCC[C@@H]1Cn1nc(Cc2ccc(Cl)cc2)c2ccccc2c1=O)NCC(F)F.O=CO", "note": "[Example 6, formic acid-3-((2R)-2-{[4-[(4-chlorophenyl)methyl]-1-oxo-2(1H)-phthalazinyl]methyl}-1-pyrrolidinyl)-N-(2,2-difluoroethyl)propanamide (1:1)]", "duration of action compared with azelastine in the histamine H1 functional antagonist assay": "longer duration of action than azelastine"}, {"compound": "CC(C)c1noc(CCN2CCC[C@@H]2Cn2nc(Cc3ccc(Cl)cc3)c3ccccc3c2=O)n1.Cl", "note": "[Example 61, 4-[(4-Chlorophenyl)methyl]-2-[((2R)-1-{2-[3-(1-methylethyl)-1,2,4-oxadiazol-5-yl]ethyl}-2-pyrrolidinyl)methyl]-1(2H)-phthalazinone, hydrochloride]", "duration of action compared with azelastine in the histamine H1 functional antagonist assay": "longer duration of action than azelastine"}]}]}
